# From US7009088B1, “Methods of modulating auxin production in plants” (priority 2000, dated 2006)
# Key:
# NIT2 = target: T1, NIT2 (Arabidopsis thaliana, UniProt P32962); settings: cited from earlier work
# T1 sequence (P32962 1-339): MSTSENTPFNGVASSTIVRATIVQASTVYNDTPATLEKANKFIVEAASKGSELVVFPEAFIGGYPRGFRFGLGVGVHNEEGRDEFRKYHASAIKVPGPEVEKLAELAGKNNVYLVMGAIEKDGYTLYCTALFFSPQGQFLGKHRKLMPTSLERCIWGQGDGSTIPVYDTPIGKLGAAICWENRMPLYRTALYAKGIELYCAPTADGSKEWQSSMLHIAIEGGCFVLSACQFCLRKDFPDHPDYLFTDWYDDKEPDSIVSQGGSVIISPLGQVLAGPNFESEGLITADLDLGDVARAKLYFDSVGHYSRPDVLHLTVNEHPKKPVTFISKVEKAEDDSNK
# NIT1 = target: T2, NIT1 (Arabidopsis thaliana, UniProt P32961); settings: cited from earlier work
# T2 sequence (P32961 1-346): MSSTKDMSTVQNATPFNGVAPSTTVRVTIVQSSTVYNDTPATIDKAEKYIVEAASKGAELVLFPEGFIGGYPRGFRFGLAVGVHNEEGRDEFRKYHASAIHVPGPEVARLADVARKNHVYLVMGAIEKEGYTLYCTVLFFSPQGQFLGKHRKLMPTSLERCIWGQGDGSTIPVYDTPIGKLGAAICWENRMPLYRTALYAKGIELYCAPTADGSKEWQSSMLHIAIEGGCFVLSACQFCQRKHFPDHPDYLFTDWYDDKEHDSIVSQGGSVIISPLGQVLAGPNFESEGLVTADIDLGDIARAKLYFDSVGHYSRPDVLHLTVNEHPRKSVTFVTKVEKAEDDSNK
# Arabidopsis seedlings = assay: Seedling growth on media supplemented with IAN (auxin phenotype); type: in vivo
# From the text: Four nitrilases, differentially expressed during development and in response to environmental cues, catalyze hydrolysis of IAN to IAA in Arabidopsis (Bartel and Fink (1994) Proc. Natl. Acad. Sci. USA 91:6649–6653). The nitl mutant is insensitive to the auxin effects of exogenously applied […] at the seedling stage (Normanly et al. (1997) Plant Cell 9:1781–1790). In accordance with the observed insensitivity of nit1 seedlings to IAN, NIT1 is most strongly expressed in the hypocotyl near the junction with the root in young seedlings as well as in the cotyledons. In contrast, NIT2 and NIT3 are expressed primarily in the cotyledons and NIT4 is expressed in the root tip (Bartel and Fink (1994) Proc. Natl. Acad. Sci. USA 91:6649–6653).
# CYP83B1 [1] = target: T3, CYP83B1 (Arabidopsis thaliana, UniProt O65782); assay: CYP83B1 catalysis of [5-3H]indole-3-acetaldoxime metabolism in yeast microsomes
# T3 sequence (O65782 1-499): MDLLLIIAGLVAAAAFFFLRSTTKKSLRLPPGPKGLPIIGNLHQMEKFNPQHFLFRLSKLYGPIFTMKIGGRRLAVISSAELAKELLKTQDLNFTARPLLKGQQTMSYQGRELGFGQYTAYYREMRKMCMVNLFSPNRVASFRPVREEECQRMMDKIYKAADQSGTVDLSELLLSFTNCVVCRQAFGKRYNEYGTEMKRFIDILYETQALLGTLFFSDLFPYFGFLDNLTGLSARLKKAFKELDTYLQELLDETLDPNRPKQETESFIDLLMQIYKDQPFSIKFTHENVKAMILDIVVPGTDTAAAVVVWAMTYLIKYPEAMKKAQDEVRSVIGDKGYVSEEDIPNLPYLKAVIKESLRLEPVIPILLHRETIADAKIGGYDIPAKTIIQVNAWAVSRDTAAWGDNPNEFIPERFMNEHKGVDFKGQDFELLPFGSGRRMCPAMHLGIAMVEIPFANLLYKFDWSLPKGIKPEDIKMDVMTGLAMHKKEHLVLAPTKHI
# Protocol: (§1) FIG. 3. (A) Analysis of CYP83B1 by optical difference spectroscopy. […] After incubation for 10 min at 28° C. reaction mixtures were extracted with ethylacetate and analyzed by TLC. (s) substrate, (p) product.
# After incubation, reaction mixtures were stopped by adding SDS to 0.4% and were analyzed by thin layer chromatography (TLC). TLC plates were developed in chloroform/methanol/water (85:14:1) and radioactive bands visualized by autoradiography.
# Reactions were stopped and extracted with ethylacetate. Aliquots of the substrate-containing ethylacetate phase and product-containing water phase were subjected to liquid scintillation counting.
# CYP83B1 [2] = target: T3, CYP83B1; assay: Optical difference (binding) spectroscopy of yeast microsomes containing CYP83B1
# Protocol: as §1
# wild type seedlings = assay: Indole glucosinolate levels in seedlings grown on MS agar, quantified as SCN; type: in vivo, Arabidopsis; settings: wild type seedlings germinated on MS media with 100 μM compound, two week old, versus wild type
# Protocol: FIG. 6. Indole glucosinolate levels are affected by CYP83B1 expression. Indole glucosinolates in individual two week old seedlings grown on MS agar were quantified calorimetrically as SCN. 1) Wild type, 2) rnt1-1, 3) molecularly complemented line 3.25.11, 4) overexpression line 1.4.7, and 5) wild type grown on 100 μM tryptamine. Data are represented as the mean±S.E, (n=10 seedlings). Except for the molecularly complemented line 3.25.11, mean indole glucosinolate values all differ from wild type seedling values at a 1% confidence value (t-test).
# Tryptophan-derived indole-3-acetaldoxime is also an intermediate in the biosynthesis of indole glucosinolates.
Compound,Km for IAN hydrolysis (NIT2),Km for IAN hydrolysis (NIT1),effect on germination / IAA phenotype (Arabidopsis seedlings; rnt1-1 seedlings on 50 μM),seedling phenotype (Arabidopsis seedlings; wild type seedlings on media supplemented with 50 μM),"turnover (CYP83B1 [1]; in the presence of cysteine, 2.2 nM CYP83B1, 1 min at 28° C.)","Km (CYP83B1 [1]; read-out: Michaelis-Menten constant Km, in the presence of cysteine, 2.2 nM CYP83B1, 1 min at 28° C.)",Kd (CYP83B1 [2]),indole glucosinolate levels (wild type seedlings),"inhibition of indole-3-acetaldoxime oxidation (CYP83B1 [1]; 17.5 mM tryptamine, 35 μM [5-3H]indole-3-acetaldoxime, 22 nM CYP83B1, 10 min at 28° C., TLC)"
"N#CCc1c[nH]c2ccccc12 [IAN, indole-3-acetonitrile]",in the mM range,in the mM range,almost completely inhibiting germination,phenocopy rnt1-1 seedlings,,,,,
ON=CCc1c[nH]c2ccccc12 [indole-3-acetaldoxime],,,,,53 min⁻¹,3 µM,0.2 µM,,
NCCc1c[nH]c2ccccc12 [tryptamine],,,,,,,24 µM,reduced levels,inhibitor
